Data from patent US4746663A, “Pyrazolo[4,3-d]pyrimidine derivative, process for its production, and antihyperlipidemic or antiatherosclerotic agent containing it” (Nissan Chemical Industries Ltd., priority 1985, dated 1988).
Entries after “also recorded” stand apart in the source; their conditions may differ.

Assays:
[1] = tested on: emulsion-induced hyperlipidemic rats; assay: Test 1: antihyperlipidemic activity in emulsion-induced hyperlipidemic rats; type: in vivo, Male S.D. rats; conditions: via stomach tube daily, 3 days; for Reduction rate of serum Chol. / Increase rate of serum HDLChol.: vs control group; for Degree of hepatomegaly (change rate of the liver weight): liver weight per 100 g body weight vs control group
Method: The antihyperlipidemic activity in emulsion-induced hyperlipidemic rats:
Male S.D. rats weighing 80-90 g (4 weeks old) were used. They were divided into groups of 5 to 6 rats each. The test compounds suspended in 0.5% CMC-Na(carboxymethyl cellulose sodium salt) were given to the rats in a daily dose of 4 ml/kg via stomach tube every 10:00 a.m. After 30 min., lipids emulsion having the following composition was orally given to the rats in an amount of 2.5 ml per rat.
During the experimental period of 3 days, the rats were fed on a standard commercial diet and water ad libitum. […] The total cholesterol and HDL cholesterol were measured.
The weight of the liver was measured. To the control group, only the aqueous CMC-Na solution and the lipids emulsion were given.
The fractionation of lipoproteins was conducted by a dextran sulfate-MgCl2 precipitation method.
Cholesterol in serum was measured by means of a cholesterol measuring kit (Cholesterol C-Test Wako, manufactured by Wako Junyaku Co., Ltd.), and cholesterol in HDL was measured by means of NC Hi-Set, manufactured by Nippon Chemiphar Co., Ltd.
Further, the reduction rate of Chol was calculated by the following equation. [formula] where A is the amount of serum Chol (mg/dl) of the control group, and B is the amount of serum Chol (mg/dl) of the group to which the therapeutic agent was administered.
Likewise, the increase rate of HDL-Chol was calculated by the following equation. [formula] where C is the amount of serum HDL-Chol (mg/dl) of the control group, and D is the amount of serum HDL-Chol (mg/dl) of the group to which the therapeutic agent was administered.
The degree of hepatomegaly (i.e. the change rate of the liver weight) was calculated by the following equation. [formula] where E is the liver weight (g) per 100 g of the body weight of the control group, and F is the liver weight (g) per 100 g of the body weight of the group to which the therapeutic agent was administered.

[2] = Test 2: acute toxicity; conditions: mouse, in vivo, po, 1000 mg/kg in corn oil, male ddY mice, after seven days
Method: The test compounds dissolved in corn oil were administered p.o. to male ddY mice. The acute toxicity was determined based on the mortality after seven days. In respect of the compounds of Examples 1 and 2 of the present invention, the mortality was 0% even at a dose of as high as 1000 mg/kg by oral administration.

[3] = literature, in words; cited from earlier work
[4] = tested on: serum lipid; conditions: Science, 193, 903 (1976); J. Lipid Res., 12, 596 (1971); cited from earlier work
[5] = animal experiments; Cancer Res., 39, 3419 (1979); cited from earlier work
[6] = 300 mg/kg, minus value represents a reduction rate

Compound | Reduction rate of serum Chol. ([1]; 300 mg/kg) [%] | Increase rate of serum HDLChol. [1, 6] [%] | Degree of hepatomegaly (change rate of the liver weight) ([1]; 300 mg/kg) [%] | mortality at 168 h [2] [%] | subsidiary ill effects [3] | also measured
CCCCCCCCCCCCCCCCOc1c2ncnc(SCC(=O)O)c2nn1C [Example 2, 2-Methyl-3-cetyloxy-7-carboxymethylthio-pyrazolo[4,3-d]pyrimidine] | 41.0 | 14.1 | 9.2 | 0 | – | –
O=C(O)c1cccnc1 [nicotinic acid] | – | – | – | – | flashing or gastroenteric troubles | –
Nc1ncnc2[nH]ncc12 [1H-pyrazolo[3,4-d]pyrimidine-4-amine] | – | – | – | – | – | function to reduce serum lipid [4]: function to reduce serum lipid
CCCCC/C=C\C/C=C\CCCCCCCCOc1c2ncnc(SCC(=O)O)c2nn1C [Example 1, 2-Methyl-3-linoleyloxy-7-carboxymethylthio-pyrazolo[4,3-d]pyrimidine] | 73.5 | -17.7 | 17.8 | 0 | – | Increase rate of serum HDLChol. ([1]; 25 mg/kg): 21.8%; Reduction rate of serum Chol. ([1]; 25 mg/kg): 25.6%; Degree of hepatomegaly (change rate of the liver weight) ([1]; 25 mg/kg): 6.0%; Increase rate of serum HDLChol. ([1]; 50 mg/kg): 13.4%; Reduction rate of serum Chol. ([1]; 50 mg/kg): 35.5%; Degree of hepatomegaly (change rate of the liver weight) ([1]; 50 mg/kg): 7.6%
CCOC(=O)C(C)(C)Oc1ccc(Cl)cc1 [Clofibrate, reference compound] | 35.6 | -18.2 | 12.1 | – | myalgia or hepatic insufficiency; also recorded: likely to lead to gallstone formation | hepatic carcinoma [5]: brings about hepatic carcinoma
